# Results: patent US9549746B2, “Delivery device and method” (THE QUEEN'S UNIVERSITY OF BELFAST, priority 2007, dated 2017)
# Experiment: Delivery across full thickness murine skin in a Franz diffusion cell from drug reservoir with integrated PMVMA microneedle array
# Conditions: reservoir 19.0 mg TMP cm^-2 attached to PMVMA microneedle array; receiver compartment followed over 25 hours; FIG. 11
# Description: In this study, a matrix-type drug reservoir containing 19.0 mg TMP cm^−2 was prepared and attached to a poly(methylvinylether/maleic acid-co-glyceride) (PMVMA) microneedle array. This system was pressed into full thickness murine skin, mounted as the barrier membrane in a Franz diffusion cell, with the aid of gentle pressure. TMP appearing in the receiver compartment was determined by fluorescence spectroscopy over a period of 25 hours.
# An identical experiment to that described in Example 3 was performed again. The only difference was that the small very water soluble photosensitiser precursor 5-aminolevulinc acid (ALA, MW 167 Da) was used instead of TMP.
smiles,measurement,value
"C[n+]1ccc(-c2c3nc(c(-c4cc[n+](C)cc4)c4ccc([nH]4)c(-c4cc[n+](C)cc4)c4nc(c(-c5cc[n+](C)cc5)c5ccc2[nH]5)C=C4)C=C3)cc1.Cc1ccc(S(=O)(=O)[O-])cc1.Cc1ccc(S(=O)(=O)[O-])cc1.Cc1ccc(S(=O)(=O)[O-])cc1.Cc1ccc(S(=O)(=O)[O-])cc1 [TMP, meso-Tetra (N-methyl-4-pyridyl) porphine tetra tosylate]",delivery of TMP across full thickness skin,sustained delivery of TMP across full thickness skin is possible
